Consider 20 compounds from patent publication US7705050B2, “Amides, useful in the inhibition of IL-8-induced chemotaxis of neutrophils” (priority 2000, dated 2010).

The structures appear in SMILES notation.

Test [1] concerns human PMNs stimulated by IL-8. Put plainly: Chemotaxis of human PMNs stimulated by IL-8 (48-well microchamber). It is filed as cell-based. As to conditions: for activity on chemotaxis induced by IL-8, in words: Tables 1 and 2; for % inhibition of leucocyte chemotaxis: Table 3, diastereoisomers of ibuprophenoyl-alanine. The method, then:
For in vitro evaluation of the compounds of the invention, polymorphonucleated leucocytes were used (hereinafter referred to as PMNs) isolated from heparinized human blood, taken from consenting healthy adults, by means of sedimentation on dextrane; the mononucleated cells were removed by means of Ficoll/Hypaque, whilst the red blood cells were eliminated by treatment with hypotonic solutions. The cell vitality of the PMNs was calculated by exclusion with Tripan blue, whilst the percentage of PMNs on the cytocentrifugate was estimated after staining with Diff Quinck., in accordance with the procedure described by W. J. Ming et al., J. Immunol., 138, 1469, 1987. In each of the experiments, which will be described in details below, the pre-incubations were carried out at a temperature of 37° C., observing incubation times of 10 minutes with the compounds under examination.
In the chemotaxis experiments and in those aimed at measuring the cytosol levels of the Ca^++ ion, recombinant human interleukin-8 (rhIL-8, Pepro Tech) was used; the lyophilized protein was dissolved in HBSS (Hank's balanced salts solution) at the concentration of 100 mcg/mL, and then diluted down to a concentration of 10 ng/mL in the chemotaxis experiments, to that a concentration of 25-50 ng/mL in the evaluation of the intracellular modifications of Ca^2+ (i.e. [Ca^2+]i) and to that a concentration of 400 ng/ml in the evaluation of tyrosine kinase activation.
During the chemotaxis assay (according to W. Falket et al., J. Immunol. Methods, 33, 239, 1980) PVP-free filters were used having a porosity of 5 mcm and microchambers made of plexiglas suitable for carrying out the replication.
The compounds being studied were added at one and the same concentration in the top-level wells that contained the suspension of PMNs, and in the wells of the bottom level that contained the vehicle to which IL-8 (or, if so desired, another stimulating agent) was added or otherwise.

In test [2] the test system is TNF-α. Nature of the test: TNF-α production in murine macrophages stimulated by LPS or H2O2. As to conditions: stimulated in murine macrophages by H2O2 and by liposaccharides. Type of test: cell-based.
A further test has as its system PGE2. Nature of the test: PGE2 synthesis in murine macrophages stimulated with lipopolysaccharides. Type of test: cell-based. As to conditions: after stimulation with LPSs at 1 μg/mL.
Test [3] deals with TNF-α. As to conditions: in the presence of LPSs and of S-ketoprofen 10^−5 M; LPSs alone 10±5 ng/mL; cited from earlier work.
Where [4] appears, read: Table 1, compound conc. 10^−8 M, IL-8 10 ng/mL.
[5] abbreviates: Table 2, compounds 10^−8 M, IL-8 10 ng/mL.

For `CC(C)Cc1ccc([C@H](C)C(N)=O)cc1` [(S)-2-(4-isobutyl-phenyl)-propionamide, reference compound], the “% inhibition of chemotaxis of human PMNs stimulated by IL-8 (10 ng/mL)” value (from here on “% inhibition of chemotaxis … (10 ng/mL)”) in test [1] (setting [4]) is −2 ± 8%. In addition, the “activity on chemotaxis induced by IL-8, in words” value (from here on “activity on chemotaxis induced”) in test [1] is “altogether absent”.

Consider `CC(C)Cc1ccc([C@@H](C)C(N)=O)cc1` [Compound 1, (R)-2-(4-isobutyl-phenyl)-propionamide, reference compound], for which the “% inhibition of chemotaxis … (10 ng/mL)” value in test [1] (setting [4]) and in test [1] (setting [5]) was 57 ± 12% throughout. Also, the “activity on chemotaxis induced” value in test [1] is reported as “active”.

Regarding `CNC(=O)[C@H](C)c1ccc(CC(C)C)cc1` [Compound 2, R(−)-2-(4′-isobutyl)phenyl-N-methyl propionamide], the “production of TNF-α” value with TNF-α [2] is given as “down-regulate the production of TNF-α”. Besides, the “synthesis of PGE2 in the macrophages” value in the test on PGE2 was “do not inhibit”. For the same compound, the “% inhibition of chemotaxis … (10 ng/mL)” value in test [1] (setting [5]) is recorded as 25 ± 9%. The “% inhibition of leucocyte chemotaxis stimulated by IL-8 (10 ng/mL)” value in test [1] (concentration of 10^−8 M) was 25±9%.

With `CC(C)Cc1ccc([C@@H](C)C(=O)NCCO)cc1` [Compound 3, R(−)-2-(4′-isobutyl)phenyl-N-(2′-hydroxyethyl)propionamide], in test [1] (setting [5]), the “% inhibition of chemotaxis … (10 ng/mL)” value came to 20 ± 11%. For the same compound, in test [1], the “activity on chemotaxis induced” value is reported as “decrease in the biological activity”.

As for `CC(C)Cc1ccc([C@@H](C)C(=O)NCC(=O)O)cc1` [Compound 4, R(−)-2-[(4′-isobutyl)phenyl]-N-carboxymethyl propionamide], the “% inhibition of chemotaxis … (10 ng/mL)” value in test [1] (setting [5]) was found to be 45 ± 8%. Moreover, in test [1], the “activity on chemotaxis induced” value was “inhibitory effect on chemotaxis”.

Take `CC(C)Cc1ccc([C@@H](C)C(=O)N[C@@H](C)C(=O)O)cc1` [Compound 5]: the “inhibition of chemotaxis induced by IL-8, dose dependence” value in test [1] (IL-8 10 ng/mL, concentration range from 10^−8 to 10^−10 M) was “inhibits, in a dose-dependent way”. The “% inhibition of chemotaxis … (10 ng/mL)” value in test [1] (setting [5]) was determined as 65 ± 9%. In addition, in test [1], the “% inhibition of leucocyte chemotaxis” value stood at 65 ± 9% and the “activity on chemotaxis induced” value was “marked “pro-kinetic” paradox effect”.

In the case of `CC(C)Cc1ccc([C@@H](C)C(=O)N[C@H](C)C(=O)O)cc1` [Compound 6, (R,R′)-2-[(4′-isobutyl)phenyl]-N-(2″-carboxyethyl)propionamide], in test [1] (setting [5]), the “% inhibition of chemotaxis … (10 ng/mL)” value is listed as −17 ± 6%. In test [1], the “% inhibition of leucocyte chemotaxis” value is listed as −17 ± 6% and the “activity on chemotaxis induced” value is recorded as “inhibitory effect on chemotaxis”.

`CC(C)Cc1ccc([C@@H](C)C(=O)N[C@@H](CO)C(=O)O)cc1` [Compound 7]: in test [1] (setting [5]), the “% inhibition of chemotaxis … (10 ng/mL)” value stood at 12 ± 4%. Besides, the “activity on chemotaxis induced” value in test [1] is “decrease in the biological activity”.

In the case of `CC(C)Cc1ccc([C@@H](C)C(=O)NCCOCCO)cc1` [Compound 8, R(−)-2-[(4′-isobutyl)phenyl]-N-(2″-hydroxyethoxyethyl)propionamide], the “% inhibition of chemotaxis … (10 ng/mL)” value in test [1] (setting [5]) was determined as 40 ± 4%. Moreover, the “activity on chemotaxis induced” value in test [1] is given as “restored”.

Take `CC(C)Cc1ccc([C@@H](C)C(=O)Nc2ccccc2)cc1` [Compound 9, R(−)-2-(4′-isobutyl)phenyl-N-phenyl propionamide]: in test [1] (setting [5]), the “% inhibition of chemotaxis … (10 ng/mL)” value came to 9 ± 10%. Further, in test [1], the “activity on chemotaxis induced” value was “poor activity”.

As to `CC(C)Cc1ccc([C@@H](C)C(=O)Nc2ccccn2)cc1` [Compound 10, R(−)-2-(4′-isobutyl)phenyl-N-(2′-pyridyl)propionamide], the “% inhibition of chemotaxis … (10 ng/mL)” value in test [1] (setting [5]) is recorded as 36 ± 6%. Moreover, in test [1], the “activity on chemotaxis induced” value is given as “good activity”.

On to `CC(C)Cc1ccc([C@@H](C)C(=O)Nc2cccnc2)cc1` [Compound 11, R(−)-2-[(4′-isobutyl)phenyl]-N-(3″-pyridyl)propionamide], for which the “% inhibition of chemotaxis … (10 ng/mL)” value in test [1] (setting [5]) worked out at 11 ± 10%. Moreover, the “activity on chemotaxis induced” value in test [1] was “poor activity”.

With `CC(C)Cc1ccc([C@@H](C)C(=O)Nc2ccncc2)cc1` [Compound 12], the “% inhibition of chemotaxis … (10 ng/mL)” value in test [1] (setting [5]) is reported as 61 ± 8%. Further, the “activity on chemotaxis induced” value in test [1] was “good activity”.

In the case of `Cc1ccnc(NC(=O)[C@H](C)c2ccc(CC(C)C)cc2)c1` [R(−)-2-[(4′-isobutyl)phenyl]-N-(4″-methyl-2″-pyridyl)propionamide, reference compound], the “% inhibition of chemotaxis … (10 ng/mL)” value in test [1] (Table 4, IL-8 10 ng/mL) is given as −12 ± 2%.

As to `Cc1ccnc(NC(=O)[C@H](C)c2cccc(C(=O)c3ccccc3)c2)c1` [R(−)-2-[(5′-benzoyl)phenyl]-N-(4″methyl-2″-pyridyl)propionamide, reference compound], the “% inhibition of chemotaxis … (10 ng/mL)” value in test [1] (Table 4, IL-8 10 ng/mL) is recorded as −15 ± 25%.

Regarding `Cc1ccnc(NC(=O)[C@@H](C)c2ccc(CC(C)C)cc2)c1` [S(+)-2-[(4′-isobutyl)phenyl]-N-(4″-methyl-2″-pyridyl)propionamide, reference compound], in test [1] (Table 4, IL-8 10 ng/mL), the “% inhibition of chemotaxis … (10 ng/mL)” value is given as −3 ± 5%.

Take `Cc1ccnc(NC(=O)[C@@H](C)c2cccc(C(=O)c3ccccc3)c2)c1` [S(+)-2-[(5′-benzoyl)phenyl]-N-(4″-methyl-2″-pyridyl)propionamide, reference compound]: the “% inhibition of chemotaxis … (10 ng/mL)” value in test [1] (Table 4, IL-8 10 ng/mL) was −1 ± 10%.

As for `CC(C)Cc1ccc([C@H](C)C(=O)N[C@H](C)C(=O)O)cc1` [S,D, reference compound], in test [1], the “% inhibition of leucocyte chemotaxis” value is 4 ± 19%.

For the compound `CC(C)Cc1ccc([C@H](C)C(=O)N[C@@H](C)C(=O)O)cc1` [S,L, reference compound], in test [1], the “% inhibition of leucocyte chemotaxis” value was found to be 4 ± 13%.

With `C[C@H](C(=O)O)c1cccc(C(=O)c2ccccc2)c1` [S-ketoprofen], the “TNF-α in the incubation medium” value in the test on TNF-α [3] was 39 ± 5 ng/mL.
